Experimental data published in patent US12570655B2, “Cysteine covalent modifiers of AKT1 and uses thereof” (Terremoto Biosciences, Inc., priority 2023, dated 2026).

What was measured:
Type in all cases: cell-based
[1] = tested on: LAPC4 prostate cancer cells; experiment: Antiproliferative effects in LAPC4 cells (CellTiter Glo); details: LAPC4 cells (AKT1 E17K allele), 72 h, read-out: LAPC4 proliferation IC50
In short: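 Growth inhibition was measured by CellTiter Glo ATP luminescence after 72 h compound exposure of 1,000 seeded cells/well. The cells were AKT1 E17K-expressing LAPC4 prostate cancer cells maintained in IMDM plus 12% FBS. IC50 values came from Hill-equation fits.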

AKT1 E17K = target: T1, AKT1 E17K (Homo sapiens, UniProt P31749, E17K); experiment: Live cell AKT1 E17K target engagement by NanoBRET competitive probe displacement; details: HEK293 cells transfected with kinase-NanoLuciferase fusion, 2 h at 37° C.
T1 construct: expressed in transfected cells; host or cells: HEK293
In short: (§1)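 IC50 fitted (Hill, log inhibitor vs response) to BRET signal, E600/E460 ratio, measured with extracellular NanoLuc inhibitor present. Intact transfected HEK293 cells bearing NanoLuc-tagged kinase were co-incubated 2 h, 37 °C, with compound dilution series and ~EC50 ATP-competitive fluorescent tracer.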

AKT2 = target: T2, AKT2 (Homo sapiens, UniProt P31751); experiment: Live cell AKT2 target engagement by NanoBRET competitive probe displacement; details: HEK293 cells transfected with kinase-NanoLuciferase fusion, 2 h at 37° C.
T2 construct: expressed in transfected cells; host or cells: HEK293
In short: as §1

AKT1 WT = target: T3, AKT1 WT (Homo sapiens, UniProt P31749); experiment: Live cell AKT1 WT target engagement by NanoBRET competitive probe displacement; details: HEK293 cells transfected with kinase-NanoLuciferase fusion, 2 h at 37° C.
T3 construct: expressed in transfected cells; host or cells: HEK293
In short: as §1

T3 sequence (P31749 whole entry, the tested form may be a part): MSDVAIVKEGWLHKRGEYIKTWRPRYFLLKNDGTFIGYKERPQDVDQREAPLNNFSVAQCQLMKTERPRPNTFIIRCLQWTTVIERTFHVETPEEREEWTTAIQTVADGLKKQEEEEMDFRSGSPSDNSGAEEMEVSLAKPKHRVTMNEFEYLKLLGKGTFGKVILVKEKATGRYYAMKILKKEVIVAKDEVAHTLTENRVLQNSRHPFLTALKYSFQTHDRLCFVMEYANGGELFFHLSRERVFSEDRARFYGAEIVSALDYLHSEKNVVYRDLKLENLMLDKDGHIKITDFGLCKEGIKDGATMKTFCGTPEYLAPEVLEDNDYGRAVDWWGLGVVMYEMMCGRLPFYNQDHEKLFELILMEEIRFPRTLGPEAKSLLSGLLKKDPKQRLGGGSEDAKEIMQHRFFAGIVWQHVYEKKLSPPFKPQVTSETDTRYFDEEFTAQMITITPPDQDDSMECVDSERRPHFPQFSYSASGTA
T2 sequence (P31751 whole entry, the tested form may be a part): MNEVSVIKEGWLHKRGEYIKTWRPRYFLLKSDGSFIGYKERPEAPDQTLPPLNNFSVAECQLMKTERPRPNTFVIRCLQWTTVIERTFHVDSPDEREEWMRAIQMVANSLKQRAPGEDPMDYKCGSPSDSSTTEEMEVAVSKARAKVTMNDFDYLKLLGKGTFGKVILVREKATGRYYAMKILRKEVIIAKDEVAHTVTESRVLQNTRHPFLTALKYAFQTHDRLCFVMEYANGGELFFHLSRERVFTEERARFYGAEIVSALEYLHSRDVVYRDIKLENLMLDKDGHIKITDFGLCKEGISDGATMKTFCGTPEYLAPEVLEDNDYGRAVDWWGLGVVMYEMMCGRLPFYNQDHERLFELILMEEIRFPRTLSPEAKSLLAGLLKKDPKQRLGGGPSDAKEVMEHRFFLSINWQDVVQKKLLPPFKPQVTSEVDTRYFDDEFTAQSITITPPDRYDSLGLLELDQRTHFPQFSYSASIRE
T1 sequence (P31749 whole entry E17K, the tested form may be a part): as the sequence (P31749 whole entry, the tested form may be a part) above, with E17K counted along it

Row | SMILES | IC50 [1] | IC50 (AKT1 E17K) | IC50 (AKT2) | IC50 (AKT1 WT)
1 | C=CC(=O)N1CCC(N[C@H]2CCc3cc(-n4c(-c5cccnc5N)nc5ccc(-n6cccn6)nc54)ccc32)C(C)C1 (single isomer, unassigned) [Example 102, 1-((3*,4*)-4-(((S)-5-(2-(2-aminopyridin-3-yl)-5-(1H-pyrazol-1-yl)-3H-imidazo[4,5-b]pyridin-3-yl)-2,3-dihydro-1H-inden-1-yl)amino)-3-methylpiperidin-1-yl)prop-2-en-1-one] | 147 nM | 35.4 nM | 101 nM | 8.09 nM
2 | C=CC(=O)N1CCC(N[C@H]2CCc3cc(-n4c(-c5cccnc5N)nc5ccc(-n6cccn6)nc54)ccc32)C(F)C1 (single isomer, unassigned) [Example 103, 1-((3*,4*)-4-(((S)-5-(2-(2-aminopyridin-3-yl)-5-(1H-pyrazol-1-yl)-3H-imidazo[4,5-b]pyridin-3-yl)-2,3-dihydro-1H-inden-1-yl)amino)-3-fluoropiperidin-1-yl)prop-2-en-1-one] | 317 nM | 80.1 nM | 547 nM | 19.3 nM
3 | C=CC(=O)N1CCC(N[C@H]2CCc3cc(-n4c(-c5cccnc5N)nc5ccc(-n6cccn6)nc54)ccc32)C(F)C1 (single isomer, unassigned) [Example 104, 1-((3*,4*)-4-(((S)-5-(2-(2-aminopyridin-3-yl)-5-(1H-pyrazol-1-yl)-3H-imidazo[4,5-b]pyridin-3-yl)-2,3-dihydro-1H-inden-1-yl)amino)-3-fluoropiperidin-1-yl)prop-2-en-1-one] | 120 nM | 20.6 nM | 92.7 nM | 4.52 nM
4 | C=CC(=O)N1CCC(N[C@H]2CCc3cc(-n4c(-c5cccnc5N)nc5ccc(-n6cccn6)nc54)ccc32)C(F)C1 (single isomer, unassigned) [Example 105, 1-((3*,4*)-4-(((S)-5-(2-(2-aminopyridin-3-yl)-5-(1H-pyrazol-1-yl)-3H-imidazo[4,5-b]pyridin-3-yl)-2,3-dihydro-1H-inden-1-yl)amino)-3-fluoropiperidin-1-yl)prop-2-en-1-one] | 53 nM | 14.8 nM | 50.1 nM | 4.51 nM
5 | C=CC(=O)N1CCC(N[C@H]2CCc3cc(-n4c(-c5cccnc5N)nc5ccc(-n6cccn6)nc54)ccc32)C(F)C1 (single isomer, unassigned) [Example 106, 1-((3*,4*)-4-(((S)-5-(2-(2-aminopyridin-3-yl)-5-(1H-pyrazol-1-yl)-3H-imidazo[4,5-b]pyridin-3-yl)-2,3-dihydro-1H-inden-1-yl)amino)-3-fluoropiperidin-1-yl)prop-2-en-1-one] | 93 nM | 20.3 nM | 120 nM | 3.85 nM
6 | C#CC1CC(N[C@H]2CCc3cc(-n4c(-c5cccnc5N)nc5ccc(-n6cccn6)nc54)ccc32)CCN1C(=O)C=C (single isomer, unassigned) [Example 111, 1-((2*,4*)-4-(((S)-5-(2-(2-aminopyridin-3-yl)-5-(1H-pyrazol-1-yl)-3H-imidazo[4,5-b]pyridin-3-yl)-2,3-dihydro-1H-inden-1-yl)amino)-2-ethynylpiperidin-1-yl)prop-2-en-1-one] | 343 nM | 127 nM | 143 nM | 21.6 nM
7 | C#CC1CC(N[C@H]2CCc3cc(-n4c(-c5cccnc5N)nc5ccc(-n6cccn6)nc54)ccc32)CCN1C(=O)C=C (single isomer, unassigned) [Example 112, 1-((2*,4*)-4-(((S)-5-(2-(2-aminopyridin-3-yl)-5-(1H-pyrazol-1-yl)-3H-imidazo[4,5-b]pyridin-3-yl)-2,3-dihydro-1H-inden-1-yl)amino)-2-ethynylpiperidin-1-yl)prop-2-en-1-one] | 11.8 nM | 8.06 nM | 17.6 nM | 9.52 nM
8 | C#CC1CC(N[C@H]2CCc3cc(-n4c(-c5cccnc5N)nc5ccc(-n6cccn6)nc54)ccc32)CCN1C(=O)C=C (single isomer, unassigned) [Example 113, 1-((2*,4*)-4-(((S)-5-(2-(2-aminopyridin-3-yl)-5-(1H-pyrazol-1-yl)-3H-imidazo[4,5-b]pyridin-3-yl)-2,3-dihydro-1H-inden-1-yl)amino)-2-ethynylpiperidin-1-yl)prop-2-en-1-one] | 25.3 nM | 8.87 nM | 50.9 nM | 7.33 nM
9 | C#CC1CC(N[C@H]2CCc3cc(-n4c(-c5cccnc5N)nc5ccc(-n6cccn6)nc54)ccc32)CCN1C(=O)C=C (single isomer, unassigned) [Example 114, 1-((2*,4*)-4-(((S)-5-(2-(2-aminopyridin-3-yl)-5-(1H-pyrazol-1-yl)-3H-imidazo[4,5-b]pyridin-3-yl)-2,3-dihydro-1H-inden-1-yl)amino)-2-ethynylpiperidin-1-yl)prop-2-en-1-one] | 12.5 nM | 8.34 nM | 21.9 nM | 8.56 nM
10 | C=CC(=O)N1CCC(N[C@H]2CCc3cc(-n4c(-c5cccnc5N)nc5ccc(-n6cccn6)nc54)ccc32)C(OC)C1 (single isomer, unassigned) [Example 115, 1-((3*,4*)-4-(((S)-5-(2-(2-aminopyridin-3-yl)-5-(1H-pyrazol-1-yl)-3H-imidazo[4,5-b]pyridin-3-yl)-2,3-dihydro-1H-inden-1-yl)amino)-3-methoxypiperidin-1-yl)prop-2-en-1-one] | 40.7 nM | 9.26 nM | 40.4 nM | 8.19 nM
11 | C=CC(=O)N1CCC(N[C@H]2CCc3cc(-n4c(-c5cccnc5N)nc5ccc(-n6cccn6)nc54)ccc32)C(OC)C1 (single isomer, unassigned) [Example 116, 1-((3*,4*)-4-(((S)-5-(2-(2-aminopyridin-3-yl)-5-(1H-pyrazol-1-yl)-3H-imidazo[4,5-b]pyridin-3-yl)-2,3-dihydro-1H-inden-1-yl)amino)-3-methoxypiperidin-1-yl)prop-2-en-1-one] | 422 nM | 339 nM | 942 nM | 32.1 nM
12 | C=CC(=O)N1CCC(N[C@H]2CCc3cc(-n4c(-c5cccnc5N)nc5ccc(-n6cccn6)nc54)ccc32)C(OC)C1 (single isomer, unassigned) [Example 117, 1-((3*,4*)-4-(((S)-5-(2-(2-aminopyridin-3-yl)-5-(1H-pyrazol-1-yl)-3H-imidazo[4,5-b]pyridin-3-yl)-2,3-dihydro-1H-inden-1-yl)amino)-3-methoxypiperidin-1-yl)prop-2-en-1-one] | 557 nM | 482 nM | 780 nM | 41.6 nM
13 | C=CC(=O)N1CCC(N[C@H]2CCc3cc(-n4c(-c5cccnc5N)nc5ccc(-n6cccn6)nc54)ccc32)C(OC)C1 (single isomer, unassigned) [Example 118, 1-((3*,4*)-4-(((S)-5-(2-(2-aminopyridin-3-yl)-5-(1H-pyrazol-1-yl)-3H-imidazo[4,5-b]pyridin-3-yl)-2,3-dihydro-1H-inden-1-yl)amino)-3-methoxypiperidin-1-yl)prop-2-en-1-one] | 167 nM | 42 nM | 320 nM | 21.3 nM
14 | C=CC(=O)N1CCCC(N[C@H]2CCc3cc(-n4c(-c5cccnc5N)nc5ccc(-n6cccn6)nc54)ccc32)C1 (single isomer, unassigned) [Example 124, 1-[(3*)-3-{[(1S)-5-[2-(2-aminopyridin-3-yl)-5-(pyrazol-1-yl)imidazo[4,5-b]pyridin-3-yl]-2,3-dihydro-1H-inden-1-yl]amino}piperidin-1-yl]prop-2-en-1-one] | 4860 nM | 99.2 nM | 1120 nM | 54.1 nM
15 | C=CC(=O)N1CCCC(N[C@H]2CCc3cc(-n4c(-c5cccnc5N)nc5ccc(-n6cccn6)nc54)ccc32)C1 (single isomer, unassigned) [Example 125, 1-[(3*)-3-{[(1S)-5-[2-(2-aminopyridin-3-yl)-5-(pyrazol-1-yl)imidazo[4,5-b]pyridin-3-yl]-2,3-dihydro-1H-inden-1-yl]amino}piperidin-1-yl]prop-2-en-1-one] | 2110 nM | 914 nM | 3280 nM | 292 nM
16 | C=CC(=O)N1CCC(N[C@H]2CCc3cc(-n4c(-c5cccnc5N)nc5ccc(-n6cccn6)nc54)ccc32)c2ccccc21 (single isomer, unassigned) [Example 126, 1-[(4*)-4-{[(1S)-5-[2-(2-aminopyridin-3-yl)-5-(pyrazol-1-yl)imidazo[4,5-b]pyridin-3-yl]-2,3-dihydro-1H-inden-1-yl]amino}-3,4-dihydro-2H-quinolin-1-yl]prop-2-en-1-one] | 5050 nM | 671 nM | 8570 nM | > 1000 nM
17 | C=CC(=O)N1CCC(N[C@H]2CCc3cc(-n4c(-c5cccnc5N)nc5ccc(-n6cccn6)nc54)ccc32)c2ccccc21 (single isomer, unassigned) [Example 127, 1-[(4*)-4-{[(1S)-5-[2-(2-aminopyridin-3-yl)-5-(pyrazol-1-yl)imidazo[4,5-b]pyridin-3-yl]-2,3-dihydro-1H-inden-1-yl]amino}-3,4-dihydro-2H-quinolin-1-yl]prop-2-en-1-one] | 37.1 nM | 8.17 nM | 36.9 nM | 9.06 nM
